# According to patent US20210254056A1, “IDENTIFICATION AND TARGETED MODULATION OF GENE SIGNALING NETWORKS” (CAMP4 THERAPEUTICS CORPORATION, priority 2017, published 2021):
# Tested on: hepatocytes
# Assay: RNA-seq of hepatocytes treated with Phase III failure compounds
# Settings: hepatocytes
# Method: RNA-seq was performed to determine the effects of the compounds on hepatocytes.
# Significance was determined by the criteria of FPKM≥0.5, a log 2(fold-change)≥1, and a […].
structure (smiles),measurement,setting,value
"CCC(CC)[C@H](NC(C)=O)[C@@H]1[C@H](O)[C@@H](C(=O)O)C[C@H]1NC(=N)N.O.O.O [peramivir (trihydrate), peramivir]","RNA-seq results, PTRH2",gene PTRH2,0.15
same,RNA-seq results: PTRH2,gene PTRH2,−0.47
same,"RNA-seq results, PUS1",gene PUS1,0.16
same,RNA-seq results: PUS1,gene PUS1,0.29
same,"RNA-seq results, PXMP2",gene PXMP2,0.19
same,RNA-seq results: PXMP2,gene PXMP2,−0.29
same,"RNA-seq results, PXMP4",gene PXMP4,0.22
same,RNA-seq results: PXMP4,gene PXMP4,−0.05
same,"RNA-seq results, RAI1",gene RAI1,0.12
same,RNA-seq results: RAI1,gene RAI1,0.38
same,"RNA-seq results, RANBP2",gene RANBP2,−0.29
same,RNA-seq results: RANBP2,gene RANBP2,−0.16
same,"RNA-seq results, RASA1",gene RASA1,−0.13
same,RNA-seq results: RASA1,gene RASA1,−0.26
same,"RNA-seq results, RBCK1",gene RBCK1,0.64
same,RNA-seq results: RBCK1,gene RBCK1,0.26
same,"RNA-seq results, RBM10",gene RBM10,0.13
same,RNA-seq results: RBM10,gene RBM10,0.11
same,"RNA-seq results, REN",gene REN,0
same,RNA-seq results: REN,gene REN,0.46
same,"RNA-seq results, RMND1",gene RMND1,−0.07
same,RNA-seq results: RMND1,gene RMND1,−0.47
same,"RNA-seq results, RMRP",gene RMRP,0.54
same,RNA-seq results: RMRP,gene RMRP,−1.76
same,"RNA-seq results, RNASEH2A",gene RNASEH2A,0.54
same,RNA-seq results: RNASEH2A,gene RNASEH2A,−0.19
same,"RNA-seq results, RORC",gene RORC,0.4
same,RNA-seq results: RORC,gene RORC,0.58
same,"RNA-seq results, RPGRIP1L",gene RPGRIP1L,−0.2
same,RNA-seq results: RPGRIP1L,gene RPGRIP1L,−0.12
same,"RNA-seq results, RRM2B",gene RRM2B,−0.53
same,RNA-seq results: RRM2B,gene RRM2B,−0.34
same,"RNA-seq results, RSAD1",gene RSAD1,0.1
same,RNA-seq results: RSAD1,gene RSAD1,0.11
same,"RNA-seq results, SAMHD1",gene SAMHD1,−0.29
same,RNA-seq results: SAMHD1,gene SAMHD1,−0.43
same,"RNA-seq results, SC5D",gene SC5D,0.05
same,RNA-seq results: SC5D,gene SC5D,−0.56
same,"RNA-seq results, SCARB1",gene SCARB1,0.12
same,RNA-seq results: SCARB1,gene SCARB1,0.11
same,"RNA-seq results, SCN9A",gene SCN9A,−0.56
same,RNA-seq results: SCN9A,gene SCN9A,−0.09
same,"RNA-seq results, SDCCAG8",gene SDCCAG8,−0.12
same,RNA-seq results: SDCCAG8,gene SDCCAG8,−0.10
same,"RNA-seq results, SEPN1",gene SEPN1,0.26
same,RNA-seq results: SEPN1,gene SEPN1,−0.02
same,"RNA-seq results, SERAC1",gene SERAC1,−0.1
same,RNA-seq results: SERAC1,gene SERAC1,−0.34
same,"RNA-seq results, SERPINA1",gene SERPINA1,−0.03
same,RNA-seq results: SERPINA1,gene SERPINA1,−0.16
same,"RNA-seq results, SERPING1",gene SERPING1,0.12
same,RNA-seq results: SERPING1,gene SERPING1,−0.27
same,"RNA-seq results, SERPINI1",gene SERPINI1,−0.33
same,RNA-seq results: SERPINI1,gene SERPINI1,−0.37
same,"RNA-seq results, SETBP1",gene SETBP1,−0.1
same,RNA-seq results: SETBP1,gene SETBP1,0.05
same,"RNA-seq results, SFXN4",gene SFXN4,0.09
same,RNA-seq results: SFXN4,gene SFXN4,−0.17
same,"RNA-seq results, SLC2A1",gene SLC2A1,0.56
same,RNA-seq results: SLC2A1,gene SLC2A1,0.08
same,"RNA-seq results, SLC2A2",gene SLC2A2,−0.62
same,RNA-seq results: SLC2A2,gene SLC2A2,−0.24
same,"RNA-seq results, SLC2A9",gene SLC2A9,0.24
same,RNA-seq results: SLC2A9,gene SLC2A9,0.16
same,"RNA-seq results, SLC4A4",gene SLC4A4,−0.08
same,RNA-seq results: SLC4A4,gene SLC4A4,−0.30
same,"RNA-seq results, SLC6A6",gene SLC6A6,0.1
same,RNA-seq results: SLC6A6,gene SLC6A6,−0.29
same,"RNA-seq results, SLC6A8",gene SLC6A8,0.26
same,RNA-seq results: SLC6A8,gene SLC6A8,0.27
same,"RNA-seq results, SLC6A20",gene SLC6A20,0.4
same,RNA-seq results: SLC6A20,gene SLC6A20,−0.44
same,"RNA-seq results, SLC7A7",gene SLC7A7,−0.01
same,RNA-seq results: SLC7A7,gene SLC7A7,0.03
same,"RNA-seq results, SLC10A1",gene SLC10A1,−0.05
same,RNA-seq results: SLC10A1,gene SLC10A1,−0.14
same,"RNA-seq results, SLC10A3",gene SLC10A3,0.11
same,RNA-seq results: SLC10A3,gene SLC10A3,0.57
same,"RNA-seq results, SLC10A5",gene SLC10A5,−0.66
same,RNA-seq results: SLC10A5,gene SLC10A5,0.46
same,"RNA-seq results, SLC10A7",gene SLC10A7,−0.13
same,RNA-seq results: SLC10A7,gene SLC10A7,−0.54
same,"RNA-seq results, SLC11A2",gene SLC11A2,0.08
same,RNA-seq results: SLC11A2,gene SLC11A2,0.04
same,"RNA-seq results, SLC19A1",gene SLC19A1,0.2
same,RNA-seq results: SLC19A1,gene SLC19A1,0.05
same,"RNA-seq results, SLC19A2",gene SLC19A2,0.09
same,RNA-seq results: SLC19A2,gene SLC19A2,−0.17
same,"RNA-seq results, SLC19A3",gene SLC19A3,0
same,RNA-seq results: SLC19A3,gene SLC19A3,−0.16
same,"RNA-seq results, SLC22A1",gene SLC22A1,0.13
same,RNA-seq results: SLC22A1,gene SLC22A1,−0.12
same,"RNA-seq results, SLC22A5",gene SLC22A5,0.12
same,RNA-seq results: SLC22A5,gene SLC22A5,−0.16
same,"RNA-seq results, SLC25A1",gene SLC25A1,0.16
same,RNA-seq results: SLC25A1,gene SLC25A1,0.33
same,"RNA-seq results, SLC25A10",gene SLC25A10,0.09
same,RNA-seq results: SLC25A10,gene SLC25A10,0.12
same,"RNA-seq results, SLC25A12",gene SLC25A12,0.29
same,RNA-seq results: SLC25A12,gene SLC25A12,0.27
same,"RNA-seq results, SLC25A13",gene SLC25A13,0.11
same,RNA-seq results: SLC25A13,gene SLC25A13,−0.17
same,"RNA-seq results, SLC25A15",gene SLC25A15,−0.01
same,RNA-seq results: SLC25A15,gene SLC25A15,0.03
same,"RNA-seq results, SLC25A19",gene SLC25A19,−0.01
same,RNA-seq results: SLC25A19,gene SLC25A19,−0.19
same,"RNA-seq results, SLC25A20",gene SLC25A20,−0.1
same,RNA-seq results: SLC25A20,gene SLC25A20,−0.32
same,"RNA-seq results, SLC25A29",gene SLC25A29,0.22
same,RNA-seq results: SLC25A29,gene SLC25A29,0.65
same,"RNA-seq results, SLC25A32",gene SLC25A32,−0.09
same,RNA-seq results: SLC25A32,gene SLC25A32,−0.32
same,"RNA-seq results, SLC27A2",gene SLC27A2,−0.21
same,RNA-seq results: SLC27A2,gene SLC27A2,−0.36
same,"RNA-seq results, SLC27A5",gene SLC27A5,0.25
same,RNA-seq results: SLC27A5,gene SLC27A5,0.13
same,"RNA-seq results, SLC29A3",gene SLC29A3,0.07
same,RNA-seq results: SLC29A3,gene SLC29A3,−0.02
same,"RNA-seq results, SLC33A1",gene SLC33A1,0.02
